Experimental data: patent publication US9265845B2, “Imaging methods using engineered integrin binding peptides” (The Board of Trustees of the Leland Stanford Junior …, priority 2006, dated 2016)
pIC50: −log10 of the molar value. No end group written: not given here.

How the values were obtained:
[1] = system: fibronectin cell adhesion; conditions: cited from earlier work
[2] = system: U87MG glioblastoma cells; assay: Blocking of U87MG cell adhesion to vitronectin-coated plates; type: cell-based; conditions: vitronectin-coated plates
Description: (§1) The present engineered peptides may be used in a variety of ways. If the peptides are attached to a surface, they may be used to attract/recruit cells to grow on the surface. For example, the present peptides may be applied to prosthetic devices, implants, bone grafts, and the like to promote tissue growth and healing at the site. They may be attached to culture dishes and promote attachment and differentiation of cells in culture. In addition, the present engineered peptides may be used to modulate cell binding to selected integrins such as α5β1, αvβ3 and αvβ5, particularly αvβ3, by adding the peptides to a cell culture to prevent cells expressing these integrins from adhering to a substrate. […] Also, the present 2.5F, 2.5D and 1.5B peptides were tested for blocking adhesion of U87MG glioblastoma cells to fibronectin-coated plates.
(§2) In another experiment, the ability of engineered knottin peptides to block U87MG cell adhesion to vitronectin- and fibronectin-coated microtiter plates. Vitronectin is a natural ligand for several integrins, including αvβ3 and αvβ5. The RGD-containing peptides were all able to inhibit U87MG cell adhesion to vitronectin-coated plates in a dose-responsive manner. […] Fibronectin also binds to several integrins, (including αvβ3 and α5β1), but the α5β1 integrin receptor is generally selective for fibronectin.
Whether the engineered AgRP peptides could block vitronectin-mediated adhesion to the U87MG cells was tested using an analogous assay. […] The AgRP peptides may not effectively block U87MG adhesion compared to the K562-αvβ3 cells because the αvβ5 integrins co-expressed on the surface of the U87MG cells could also contribute to vitronectin-mediated adhesion and compensate for the loss of αvβ3 integrin function.

[3] = biological target: α5β1 integrin (Homo sapiens, UniProt P05556+P08648); assay: Competition of 125I-echistatin to detergent-solubilized plate-coated integrin; type: binding; conditions: 0.06 nM 125I echistatin, 5 nM and 50 nM peptide
Method: (§3) FIG. 10A through FIG. 10D is a series of histograms showing binding specificities to integrins αvβ3, αvβ5, α5β1, and αiibβ3 for engineered EETI-RGD peptides compared to controls. Error bars represent experiments performed in triplicate. Competition binding of 0.06 nM ^125I echistatin with 5 nM (black bars) and 50 nM (grey bars) unlabeled peptide to plate-coated integrins was measured. […] The engineered peptides have very little binding to αiibβ3 integrin.
(§4) This was done by competition of ^125I-echistatin to detergent-solubilized integrin receptors coated onto microtiter plates (see FIG. 10). […] This is consistent with previous studies which have shown αv integrin receptors can accommodate a wide range of RGD-containing cyclic structures. […] However, since α5β1 integrins are expressed on many tumors and are all involved in mediating angiogenesis and metastasis, a broad spectrum agent that targets all three integrins will be useful for diagnostic and therapeutic applications. With the exception of echistatin, all of the RGD-containing peptides bound weakly to the αiibβ3 receptor, showing the specificity of the present peptides for the αv and α5-containing integrin heterodimers. This characteristic is valuable for molecular imaging and therapeutic applications, since binding to αiibβ3 on platelet cells prevents blood clotting and would lead to non-specific in vivo effects.

[4] = biological target: αvβ3 integrin (Homo sapiens, UniProt P05106+P06756); assay: as above; type: binding; conditions: 0.06 nM 125I echistatin, 5 nM and 50 nM peptide
Method: as §3, §4

[5] = biological target: αiibβ3 integrin (Homo sapiens, UniProt P05106+P08514); assay: as above; type: binding; conditions: 0.06 nM 125I echistatin, 5 nM and 50 nM peptide
Method: as §3, §4

[6] = biological target: αvβ5 integrin (Homo sapiens, UniProt P06756+P18084); assay: as above; type: binding; conditions: 0.06 nM 125I echistatin, 5 nM and 50 nM peptide
Method: as §3, §4

[7] = biological target: T1, αvβ3 integrin on U87MG glioblastoma cells (Homo sapiens, UniProt P05106+P06756); assay: 125I-echistatin competition binding to U87MG glioblastoma cells
T1 construct: host or cells: U87MG glioblastoma cells
Method: FIG. 9 is a graph showing normalized competition plotted against peptide concentration in an integrin-binding assay on U87MG glioblastoma cells.
U87MG glioblastoma cells, which express ˜10^5 αvβ3 integrin receptors per cell, were used for these studies. […] An EETI-based polypeptide with a scrambled RDG amino acid sequence, designated FN-RDG, served as a negative control.
Half-maximal inhibitory concentrations (IC50) […] of data measured on at least three separate days. Data for unlabeled and Cy5.5-labeled peptides are shown. Site-specific labeling of RGD miniproteins with a near-infrared optical imaging probe: The free N-terminal amine of our polypeptides was used for site-specific attachment of Cy5.5, a near infrared imaging probe.
An αvβ3 integrin receptor binding assay is performed to determine the relative affinities of the mock-PET tracers compared to their unlabeled polypeptides. Briefly, 2×10^5 U87MG glioblastoma cells are incubated with 0.06 nM ^125I-echistatin in integrin binding buffer (25 mM Tris-HCl, pH 7.4, 150 mM NaCl2 1 mM CaCl2 1 mM MgCl2, 1 mM MnCl2, 0.1% BSA), in the presence of increasing concentrations of mock-PET tracers at room temperature. After incubation for 3 h, cells are pelleted by centrifugation at 1500 RPM and washed three times in binding buffer to remove unbound ligands. The radioactivity remaining in the cell pellet is measured by γ counting. IC50 values are determined by plotting the % competition and using a four-point binding equation (Kaleidagraph) to fit the data.

[8] = system: U87MG glioblastoma cells; assay: Blocking of U87MG cell adhesion to fibronectin-coated plates; type: cell-based
Description: as §1, §2

[9] = system: U87MG tumor; assay: MicroPET imaging and biodistribution of radiolabeled peptides in U87MG tumor-bearing mice; type: in vivo, mouse; conditions: 64Cu-DOTA-labeled peptides, compared to 64Cu-DOTA-c(RGDyK)
Method: MicroPET imaging of tumor-bearing mice is performed on a microPET R4 rodent model scanner (Concorde Microsystems Inc, Knoxyille, Tenn.). U87MG tumor bearing mice are injected with PET imaging agent via the tail vein. At various times post injection, the mice are anesthetized with 2% isoflurane, and 10 min static scans are obtained. Images are reconstructed by a two-dimensional ordered expectation maximum subset algorithm as previously described. Regions of interest (ROI) are drawn over the tumor on decay corrected whole body images and ROI derived % injected dose per gram of tissue is determined. Statistical analysis is performed using the student's t-test for unpaired data. A 95% confidence level is used to determine statistical significance.
Female athymic mice bearing U87MG tumors were injected with 80-150 μCi of ^64Cu-DOTA-knottin 2.5D or 7-9 μCi of [^18F]-FB-E[knottin 2.5D]. Static images were taken at various timepoints post injection using a microPET R4 rodent model scanner (Concorde Microsystems Inc, Knoxyille, Tenn.). […] Uptake was also observed in the kidney as both probes cleared through the bladder.
Mice are sacrificed by exanguinations at various time points postinjection. Blood, tumor and the major organs and tissues are collected, wet-weighed and measured in a γ-counter. The % injected dose per gram is determined for each sample. For each mouse, radioactivity of the tissue samples is calibrated against a known aliquot of the injectate. Values are reported as the mean±standard deviation.
The following Table 10 quantifies the ^64Cu-DOTA knottin uptake by direct tissue sampling of the mice up to 24 hours post injection and is reported in % ID (percent injected dose)/gram. Similar results were obtained with [^18F]-FB-E[knottin 2.5D].
A U87MG glioblastoma xenograft mouse model was used. U87MG cells were maintained at 37° C. in a humidified atmosphere containing 5% CO2 in Dulbecco's modified eagle medium, 10% heat-inactivated fetal bovine serum, and penicillin-streptomycin (all from Invitrogen). Animal procedures were carried out according to a protocol by Stanford University Administrative Panels on Laboratory Animal Care. Female athymic nude mice (nu/nu), obtained at 4-6 weeks of age (Charles River Laboratories, Inc.), were injected subcutaneously in the right or left shoulder with 2×10^7 U87MG glioblastoma cells suspended in 100 μL of PBS. Mice were used for in vivo imaging studies when their tumors reached approximately 8 to 10 millimeters in diameter.
U87MG tumor-bearing mice (n=3 or more for each probe) were injected with ˜100 μCi of ^64Cu-DOTA-conjugated peptides via the tail vein and imaged with a microPET R4 rodent model scanner (Siemens Medical) using 3 or 5 min static scans. […] Images were reconstructed by a two dimensional ordered expectation maximum subset algorithm and calibrated as previously described (Wu, Y, Zhang, X, Xiong, Z, et al. microPET imaging of glioma integrin {alpha}v{beta}3 expression using (64)Cu-labeled tetrameric RGD peptide. J Nucl Med 2005; 46:1707-18). ROIs were drawn over the tumor on decay-corrected whole body images using ASIPro VM software (Siemens Medical). The mean counts per pixel per minute were obtained from the ROI and converted to counts per milliliter per minute with a calibration constant. ROIs were converted to counts/g/min, and % ID/g values were determined assuming a tissue density of 1 g/mL. No attenuation correction was performed.

[10] = in vitro; type: in vitro ADME; conditions: mouse serum, 37° C., read-out: peptide remaining
Description: Their larger size (˜3-4 kDa) and enhanced affinity compared to RGD-based cyclic peptides confer enhanced pharmacokinetics and biodistribution for molecular imaging and therapeutic applications. This is described in connection with FIG. 8. These RGD-miniproteins are small enough to allow for chemical synthesis and site-specific conjugation of imaging probes, radioisotopes, or chemotherapeutic agents. Furthermore, they can easily be chemically modified to further improve in vivo properties if necessary. […] The tumor is indicated by an arrow. The near infrared fluorescent Cy5.5 label study provides guidance for the preparation of these polypeptides as ^18F and ^64Cu-labeled PET imaging probes. […]
(§5) The stability of the knottin peptide 2.5D upon exposure to human or mouse serum at 37° C. was measured. Reversed-phase HPLC was used to quantify the amount of intact knottin peptide remaining at various times post incubation.
Nonradioactive mock-PET tracers are incubated with mouse and human serum for various time points at 37° C., and aliquots are acidified and flash frozen. […] The cartridge-bound PET-tracers are eluted with 90% acetonitrile containing 0.1% TFA, lyophilized, and resuspended in solvent A. The solution is passed through a NANOSEP (Pall Corp) 10 kDa cutoff filter and analyzed by reversed-phase HPLC to determine the amount of polypeptide-conjugate remaining.

[11] = Stability in human serum at 37° C., reversed-phase HPLC; type: in vitro ADME
Method: as §5
Nonradioactive mock-PET tracers are incubated with mouse and human serum for various time points at 37° C., and aliquots are acidified and flash frozen. The aliquots are then thawed and microcentrifuged at high speeds to remove aggregates. The soluble fraction is passed through a Sep-Pak C18 cartridge (Waters Corp), and rinsed several times with water containing 0.1% TFA (solvent A). The cartridge-bound PET-tracers are eluted with 90% acetonitrile containing 0.1% TFA, lyophilized, and resuspended in solvent A. The solution is passed through a NANOSEP (Pall Corp) 10 kDa cutoff filter and analyzed by reversed-phase HPLC to determine the amount of polypeptide-conjugate remaining.

[12] = system: α5β1 expressing cells; conditions: inhibiting attachment of α5β1 expressing cells to fibronectin; cited from earlier work
[13] = system: αvβ3 and αvβ5 integrins; conditions: inhibiting cell adhesion mediated by αvβ3 and αvβ5 integrins; cited from earlier work

Question: With GRGD as the compound, how does the pIC50 [1] read?
Answer: The pIC50 was 2.97.

Question: Which results are given for “FN-RDG: EETI-based polypeptide with a scrambled RDG amino acid sequence, negative control (GCVTGRDGSPASSCSQDSDCLAGCVCGPNGFCG)”?
Answer: blocking of U87MG cell adhesion to vitronectin, in words [2]: not able to inhibit; binding to α5β1 integrin, in words [3]: did not bind; binding to αvβ3 integrin, in words [4]: did not bind; binding to αiibβ3 integrin, in words [5]: did not bind; binding to αvβ5 integrin, in words [6]: did not bind; binding to U87MG cells / competition with 125I-echistatin, in words [7]: not able to compete; blocking of U87MG cell adhesion to fibronectin, in words [8]: not able to inhibit

Question: With CC(C)[C@@H]1NC(=O)[C@@H]2CSSC[C@H](NC(=O)CN)C(=O)N3CCC[C@H]3C(=O)N[C@@H](CCC(N)=O)C(=O)NCC(=O)N[C@@H](CCCNC(=N)N)C(=O)NCC(=O)N[C@@H](CC(=O)O)C(=O)N[C@@H](Cc3c[nH]c4ccccc34)C(=O)N[C@@H](C)C(=O)N3CCC[C@H]3C(=O)N[C@@H]([C@@H](C)O)C(=O)N[C@@H](CO)C(=O)N[C@H]3CSSC[C@H](NC1=O)C(=O)NCC(=O)N1CCC[C@H]1C(=O)N[C@@H](CC(N)=O)C(=O)NCC(=O)N[C@@H](Cc1ccccc1)C(=O)N[C@H](C(=O)NCC(=O)O)CSSC[C@H](NC(=O)[C@H](CC(=O)O)NC(=O)[C@H](CO)NC(=O)[C@H](CC(=O)O)NC(=O)[C@H](CCC(N)=O)NC(=O)[C@H](CO)NC3=O)C(=O)N[C@@H](CCCNC(=N)N)C(=O)N[C@@H](C)C(=O)NCC(=O)N2 [2.5D] as the compound, how does the “blocking of U87MG cell adhesion to vitronectin, in words” value [2] read?
Answer: Its value is “blocked adhesion better than controls”.

Question: What about the “binding to α5β1 integrin, in words” value [3] of the same compound?
Answer: Its value is “only minimal binding”.

Question: What about the “binding to αvβ3 integrin, in words” value [4] of the same compound?
Answer: The value was “strongest levels of binding”.

Question: What about the “binding to αvβ5 integrin, in words” value [6] of the same compound?
Answer: The value was “strongest levels of binding”.

Question: What about the “liver uptake, in words” value [9] of the same compound?
Answer: The value was “lower liver uptake”.

Question: And the remaining at 24 h ([10]; 24 h)?
Answer: Its remaining at 24 h is ~90%.

Question: What about the remaining at 96 h ([10]; 96 h) of the same compound?
Answer: The remaining at 96 h was ~70%.

Question: And the remaining at 24 h ([11]; 24 h, read-out: peptide remaining)?
Answer: The remaining at 24 h was ~90%.

Question: What about the peptide remaining ([11]; 96 h) of the same compound?
Answer: The peptide remaining was “approximately 70%”.

Question: What about the “blocking of U87MG cell adhesion to fibronectin, in words” value [8] of the same compound?
Answer: The value was “only echistatin and polypeptide 2.5F blocked adhesion”.

Question: Which “fold more potent than linear RGD hexapeptides” value [12] does the source give for CRGDCL (also: cyclic) here?
Answer: Its value is 10 fold.

Question: Which “fold more effective than comparable peptides with one disulfide bond” value [13] does the source give for “ACDCRGDCFCG (disulfide (positions not given here); also: two disulfide bonds, pairing not given here)” here?
Answer: Its value is 20 fold.

Question: And the “fold more potent than linear RGD peptides” value [13]?
Answer: Its value is 200 fold.
